Molecules are shown by their SMILES.

One test concerns A549 cells. Particulars: cited from earlier work.
The test system of test [1] is Skov-3 cells (human ovarian cancer). Briefly: FACS analysis of cell cycle stage by DNA content (mitotic arrest). Particulars: treated 24 hours, paclitaxel at 10 nM. The test is classed as cell-based. The procedure:
FACS analysis to determine cell cycle stage by measuring DNA content was performed as follows. Skov-3 cells (human ovarian cancer) were split 1:10 for plating in 10 cm dishes and grown to subconfluence with RPMI 1640 medium containing 5% fetal bovine serum (FBS). The cells were then treated with either 10 nM paclitaxel, the test compound or 0.25% DMSO (vehicle for compounds) for 24 hours. Cells were then rinsed off the plates with PBS containing 5 mM EDTA, pelleted, washed once in PBS containing 1% FCS, and then fixed overnight in 85% ethanol at 4° C. Before analysis, the cells were pelleted, washed once, and stained in a solution of 10 μg propidium iodide and 250 μg of ribonuclease (RNAse) A per milliliter at 37° C. for half an hour. Flow cytometry analysis was performed on a Becton-Dickinson FACScan, and data from 10,000 cells per sample was analyzed with Modfit software.

Usually GI50 stands for the concentration at which growth is held to half of that of the control. `O=c1[nH]cc(F)c(=O)[nH]1` [5-fluorouracil]: the concentration for 50% growth inhibition (GI50) in the test with A549 cells was 1000 nM.
With `COc1cccc2c1C(=O)c1c(O)c3c(c(O)c1C2=O)C[C@@](O)(C(=O)CO)C[C@@H]3O[C@H]1C[C@H](N)[C@H](O)[C@H](C)O1` [doxorubicin], the GI50 in the test with A549 cells is 63 nM.
Consider `NC(=O)NO` [hydroxyurea], for which, in the test with A549 cells, the 50% growth inhibitory concentration (GI50) was 500000 nM.
As to `CC(=O)O[C@H]1C(=O)[C@@]2(C)[C@H]([C@H](OC(=O)c3ccccc3)[C@]3(O)C[C@H](OC(=O)[C@H](O)[C@@H](NC(=O)c4ccccc4)c4ccccc4)C(C)=C1C3(C)C)[C@]1(OC(C)=O)CO[C@@H]1C[C@@H]2O` [paclitaxel], in test [1], the “shift of cell population between cell cycle stages (DNA content)” value is on record as “caused a shift in the population of cells from a G0/G1 cell cycle stage (2 n DNA content) to a G2/M cell cycle stage (4 n DNA content)”. Also, in the test on A549 cells, the GI50 was 4 nM.
